Assays:
[1] = tested on: neonatal rat cardiomyocytes; assay: Isoproterenol/phenylephrine-induced hypertrophy in isolated neonatal cardiomyocytes; format: cell-based; settings: 200 μM
Protocol: Cardiomyocytes of neonatal rats were isolated by collagenase digestion and cultured overnight in DMEM containing 10% fetal calf serum (FCS), and then culture medium was changed to serum-free high glucose insulin-transferrin-sodium selenite (ITS). Hypertrophy of cardiomyocytes was induced by treating the cells with 1 mM isoproterenol (ISO) or phenylephrine (PE) for 48 hours.

U87 cells [2] = assay: Cell growth and viability assays in U87 cells; format: cell-based, human
Protocol: IDH1(R132H) mutant or IDH1(WT) expressing U87 cells were as reported (Li, et al. Neuro Oncol 15, 57-68). […] All the cells were cultured at 37° C. and 5% CO2. Cells were transfected with indicated siRNA using Thermo Scientific DharmaFECT Transfection Reagent 1 by following the manufacturer's instructions.
Cells were seeded in 12-well plates and after overnight incubation were treated with indicated concentrations of each compound. After harvesting, cells were stained by Acridine Orange (AO) and DAPI. Cell number and viability were measured based on AO and DAPI fluorescence measured by NC3000 (Chemometec) following the manufacturer's instructions.

WI-38 cells = assay: Assay for ATP levels in normal human fibroblasts; format: cell-based; settings: 2 hours
Protocol: Normal human diploid fibroblast WI-38 (ATCC, CCL-75) cells were seeded in 96-well plates at 2×10^4 cells per well. […] ATP levels were measured using the CellTiter-Glo luminescent ATP assay (Promega, G7572); luminescence was read using Analyst HT (Molecular Devices). In parallel, identically treated cells were lysed in M-PER (Thermo Scientific, 78501) to obtain protein concentration by BCA Protein Assay kit (Pierce, 23223). ATP levels were normalized to protein content. Statistical analysis was performed using GraphPad Prism (unpaired t-test).

ATP synthase = molecular target: T1, ATP synthase (Mus musculus, UniProt P56480); assay: ATP synthase enzyme inhibition kinetics; format: biochemical
T1 construct: Mitochondria were isolated from mouse liver as described above; from tissue; host or cells: isolated mouse liver mitochondria
Protocol: ATP synthesis enzyme inhibition kinetic analysis was performed using isolated mitochondria. Mitochondria were isolated from mouse liver as described above. The final mitochondrial pellet was resuspended in MAS buffer supplemented with 5 mM sodium ascorbate (Sigma, A7631) and 5 mM TMPD (Sigma, T7394).
ATP synthesis was monitored by the increase in luminescence over time by a luminometer (Analyst HT, Molecular Devices). ATP synthase-independent ATP formation, derived from the oligomycin-insensitive luminescence, was subtracted as background. The initial velocity of ATP synthesis was calculated from the slope of the first 3 minutes of the reaction, before the velocity begins to decrease. Enzyme inhibition kinetics was analyzed by nonlinear regression least squares fit using GraphPad Prism.

Complex V = molecular target: T2, Complex V (Bos taurus, UniProt P00829); assay: Complex V activity assay (MitoTox OXPHOS kit); format: biochemical, bovine
T2 construct: from bovine heart mitochondria; purchased Abcam ab109907; host or cells: bovine heart mitochondria
Protocol: Complex V activity was assayed using the MitoTox OXPHOS Complex V Activity Kit (Abcam, ab109907). Vehicle (H2O) or α-KG was mixed with the enzyme prior to the addition of phospholipids. […] Relative Complex V activity was compared to vehicle. Oligomycin (Sigma, O4876) was used as a positive control for the assay.

[3] = molecular target: mitochondrial ATP synthase (Complex V) (Mus musculus, UniProt P56480); assay: Mice fed octyl α-KG in chow; heart mitochondria OCR
Protocol: The mice were sacrificed, hearts harvested, and mitochondria isolated. The oxygen consumption rate (OCR) was measured using a Seahorse XF-24 Analyzer (Seahorse Bioscience).

DBA2/J female mice = assay: Isoproterenol-induced hypertrophy and heart failure in mice; format: in vivo, mouse; settings: ISO plus octyl α-KG, 3 weeks, echocardiography; ISO+octanol 49.2%±1.9
Protocol: Hypertrophy and heart failure were induced by chronic infusion of isoproterenol for 3 weeks at a dose of 30 μg per gram bodyweight per day using osmotic mini-pumps (Alzet, model 1004). DBA2/J female mice at 8 weeks old were used for this study. […] ISO-induced cardiac hypertrophy and cardiomyopathy were determined at the end of experiment by assessing heart size and heart to body weight ratio.
More importantly, cardiac output was assessed and the cardiac ejection fractions were determined by echocardiography. The cardiac EF for the basal levels before the treatment is 55.1%±2.6 (n=14).

mTOR [4] = assay: Assay for mammalian TOR (mTOR) pathway activity; format: cell-based, human; settings: U87 cells
Description: Specific antibodies used: P-S6K T389 (Cell Signaling Technology, 9234), S6K (Cell Signaling Technology, 9202S), P-4E-BP1 S65 (Cell Signaling Technology, 9451S), 4E-BP1 (Cell Signaling Technology, 9452S), P-AKT S473 (Cell Signaling Technology, 4060S), AKT (Cell Signaling Technology, 4691S), P-ULK1 S757 (Cell Signaling Technology, 6888), ULK1 (Cell Signaling Technology, 4773S), and GAPDH (Santa Cruz Biotechnology, 25778).

U87 cells [5] = assay: Assay for ATP levels in U87 cells; format: cell-based, human; settings: mitochondrial oxidative phosphorylation conditions, 2 hours
Protocol: For 2-HG experiments, U87 cells were seeded in 96-well plates at 2×10^4 cells per well and treated with indicated compound for 2 hours in triplicate. ATP levels were measured using the CellTiter-Glo luminescent ATP assay (Promega, G7572); luminescence was read using Analyst HT (Molecular Devices). […] Statistical analysis was performed using GraphPad Prism (unpaired t-test).

mammalian cells = assay: Oxygen consumption rate in cells (Seahorse XF-24); format: cell-based; settings: treated cells, 1 hour
Protocol: OCR measurements were made using a Seahorse XF-24 analyzer (Seahorse Bioscience) (Wu, et al. Am J Physiol Cell Physiol 292, C125-136 (2007)). […] Oxygen consumption rates were measured 3 times under basal conditions and normalized to protein concentration per well. Statistical analysis was performed using GraphPad Prism.

AMPK = AMPK (T172) phosphorylation by Western blotting; format: cell-based, human; settings: WI-38 cells; higher concentration of octyl α-KG
Protocol: Western blotting was performed with specific antibodies against P-AMPK T172 (Cell Signaling Technology, 2535S) and AMPK (Cell Signaling Technology, 2603S). […] Number of GFP::LGG-1 containing puncta was quantitated using ImageJ. Bars indicate the mean. […] HEK-293 (Panel d) or HeLa (Panel e) cells were lysed in M-PER buffer (Thermo Scientific, 78501) with the addition of protease inhibitors (Roche, 11836153001) and phosphatase inhibitors (50 mM NaF, 10 mM β-glycerophosphate, 5 mM sodium pyrophosphate, 2 mM Na3VO4). Protein concentration of the lysate was measured by BCA Protein Assay kit (Pierce, 23227). […] Pronase (Roche, 10165921001) digestions were performed for 20 minutes at room temperature, and stopped by adding SDS loading buffer and immediately heating at 95° C. for 5 minutes (for Panel d) or 70° C. for 10 minutes (for Panel e). Samples were subjected to SDS-PAGE on 4-12% Bis-Tris gradient gel (Invitrogen, NP0322BOX) and Western blotted with specific antibodies against ATP5B (Santa Cruz, sc58618), mTOR (Cell Signaling Technology, 2972), or GAPDH (Ambion, AM4300). ImageJ was used to quantify the mTOR/GAPDH and ATP5B/GAPDH ratios.

C. elegans [6] = assay: Assay for ATP levels in C. elegans; format: in vivo, Caenorhabditis elegans; settings: 8 mM; day 2, P=0.969; day 8, P=0.012
Protocol: Assay for ATP levels in C. elegans. […] ATP levels were normalized to number of worms. Statistical analysis was performed using Microsoft Excel (t-test, two-tailed, two-sample unequal variance).

Complex IV = tested on: T3, Complex IV; assay: Complex IV activity assay (MitoTox OXPHOS kit); format: biochemical, bovine; settings: relative to vehicle (H2O)
T3 construct: from bovine heart mitochondria; purchased Abcam ab109906; host or cells: bovine heart mitochondria
Protocol: Complex IV activity was assayed using the MitoTox OXPHOS Complex IV Activity Kit (Abcam, ab109906).

mTOR [7] = molecular target: T4, mTOR (Homo sapiens, UniProt P42345); assay: DARTS for TOR in HEK-293 / HeLa lysates; format: binding; settings: HEK-293 or HeLa lysates
T4 construct: HEK-293 (Panel d) or HeLa (Panel e) cells were lysed in M-PER buffer; endogenous in cells; host or cells: HEK-293; HeLa
Description: Number of GFP::LGG-1 containing puncta was quantitated using ImageJ. Bars indicate the mean. […] ImageJ was used to quantify the mTOR/GAPDH and ATP5B/GAPDH ratios.

ATP-2 = molecular target: T5, ATP-2 (Caenorhabditis elegans, UniProt P46561); assay: DARTS using C. elegans lysate; format: binding; settings: worm lysate
T5 construct: from tissue; host or cells: lysate of whole wild-type C. elegans
T5 sequence (P46561 whole entry): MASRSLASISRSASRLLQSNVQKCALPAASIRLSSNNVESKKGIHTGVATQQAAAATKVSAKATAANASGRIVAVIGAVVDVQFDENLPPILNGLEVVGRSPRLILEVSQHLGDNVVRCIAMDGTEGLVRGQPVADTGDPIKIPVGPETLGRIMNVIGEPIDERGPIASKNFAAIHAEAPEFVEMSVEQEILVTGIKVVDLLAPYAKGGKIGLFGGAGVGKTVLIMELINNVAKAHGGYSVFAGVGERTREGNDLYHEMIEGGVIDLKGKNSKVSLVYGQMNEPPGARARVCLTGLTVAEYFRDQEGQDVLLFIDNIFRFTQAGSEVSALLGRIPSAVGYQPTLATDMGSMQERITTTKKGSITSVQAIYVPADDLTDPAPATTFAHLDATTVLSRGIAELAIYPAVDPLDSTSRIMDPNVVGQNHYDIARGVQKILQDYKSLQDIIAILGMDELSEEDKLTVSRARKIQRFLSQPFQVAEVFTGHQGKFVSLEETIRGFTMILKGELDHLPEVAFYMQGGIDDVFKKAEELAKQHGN
Protocol: For DARTS using C. elegans (FIG. 6, Panel a), wild-type animals of various ages were grown on NGM/OP50 plates, washed 4 times with M9 buffer, and immediately placed in the −80° C. freezer. […] All steps were performed on ice or at 4° C. to help prevent premature protein degradation. TNC buffer (50 mM Tris-HCl pH 8.0, 50 mM NaCl, 10 mM CaCl2) was added to the worm lysates.

ATP5B = molecular target: T6, ATP5B (Homo sapiens, UniProt P06576); assay: DARTS (drug affinity responsive target stability) with Western blotting; format: binding; settings: human cell lysates, Pronase digestion
T6 construct: HeLa cells were lysed in M-PER buffer; endogenous in cells; host or cells: HeLa (alpha-KG); U87 (2-HG)
T6 sequence (P06576 48-529): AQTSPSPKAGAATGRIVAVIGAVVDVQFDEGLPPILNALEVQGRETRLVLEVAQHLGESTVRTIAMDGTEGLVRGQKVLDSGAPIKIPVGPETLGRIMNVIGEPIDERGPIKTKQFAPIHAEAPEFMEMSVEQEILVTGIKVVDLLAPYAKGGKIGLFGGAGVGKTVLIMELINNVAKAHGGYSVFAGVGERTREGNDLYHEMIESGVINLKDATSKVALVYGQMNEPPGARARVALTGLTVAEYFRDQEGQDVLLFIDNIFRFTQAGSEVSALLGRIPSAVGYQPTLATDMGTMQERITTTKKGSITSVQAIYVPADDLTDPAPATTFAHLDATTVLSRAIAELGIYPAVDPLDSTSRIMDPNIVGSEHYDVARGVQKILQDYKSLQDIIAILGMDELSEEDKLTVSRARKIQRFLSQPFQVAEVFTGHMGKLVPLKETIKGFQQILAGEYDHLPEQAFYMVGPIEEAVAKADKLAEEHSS
Protocol: Target identification using DARTS was conducted in accordance with methods know in the art. […] The resulting digests were separated by SDS-PAGE and visualized using SYPRO Ruby Protein Gel Stain (Invitrogen, S12000).
GAPDH (Ambion, AM4300) was used as a negative control.
For 2-HG experiments, DARTS was performed as described above.

pyruvate kinase = assay: Coupling-enzyme control of SMP ATPase assay; format: biochemical; settings: up to 10 mM, external ADP added
Protocol: (§1) The SMP ATPase activity was assayed using the Complex V Activity Buffer as above. The production of ADP is coupled to the oxidation of NADH to NAD^+ through pyruvate kinase and lactate dehydrogenase. […] The absorbance decrease of NADH at 340 nm correlates to ATPase activity.

lactate dehydrogenase = assay: Coupling-enzyme control of SMP ATPase assay; format: biochemical; settings: up to 10 mM, external ADP added
Protocol: as §1

C. elegans [8] = assay: Oxygen consumption rate in living C. elegans; format: in vivo, Caenorhabditis elegans; settings: worms, 8 mM, day 2 of adulthood
Protocol: OCR was assessed on day 2 of adulthood. […] Oxygen consumption rates were measured 7 times under basal conditions and normalized to the number of worms counted per well. The experiment was repeated twice. Statistical analysis was performed using Microsoft Excel (t-test, two-tailed, two-sample unequal variance).

## CCCCCCCCOC(=O)C(=O)CCC(=O)O [octyl α-KG, octyl α-ketoglutarate]
[1]
  ISO- and PE-induced overexpression of ANF and BNP: suppressed
[1]; 1 mM isoproterenol, 48 hours
  ISO-induced hypertrophy: completely abolished
U87 cells [2]; 400 μM and 800 μM
  viability upon glucose starvation: decreased
U87 cells [2]; glucose medium, to a lesser extent, not shown
  growth rate: reduced
U87 cells [2]; glucose-free medium, 400 μM and 800 μM
  growth rate: decreased growth rate
WI-38 cells
  ATP levels: reduced
ATP synthase; 200 μM octyl α-KG, octanol vehicle 53.9
  apparent Vmax of ATP synthase: 26.7
ATP synthase; α-KG released from octyl α-KG
  mode of ATP synthase inhibition: uncompetitive inhibition
Complex V; α-KG released from octyl α-KG, not shown
  reversibility of ATP synthase inhibition: reversible
[3]; mice fed 1.5 mg/g body weight in chow for one week, versus octanol control mice
  state 3 respiration of heart mitochondria: lower
[3]; mice, 1.5 mg/g body weight in chow, after 5 days feeding
  physiological or behavioral abnormality: no abnormality
DBA2/J female mice
  cardiac ejection fraction: 53.8%±2.3
mTOR [4]
  phosphorylation of S6K (T389): decreased
  phosphorylation of mTOR substrates: decreased
U87 cells [5]
  ATP content: decreased
Mammalian cells
  oxygen consumption rates: Decreased
AMPK
  P-AMPK (T172): increased

## O=C(O)CCC(=O)C(=O)O [α-KG, α-ketoglutarate]
C. elegans [6]
  ATP levels: reduced
Complex IV
  Complex IV activity: does not affect
Complex V; bovine heart mitochondria
  activity of Complex V: inhibits
mTOR [7]
  binding to TOR by DARTS: does not bind
ATP-2
  ATP-2 protein protection from Pronase digestion: protection
ATP5B
  binding to ATP5B by DARTS: binding specifically
Pyruvate kinase
  activity of pyruvate kinase: did not affect
Lactate dehydrogenase
  activity of lactate dehydrogenase: did not affect
C. elegans [8]
  oxygen consumption rates: Decreased

From patent publication US20230218559A1, “Compositions and Methods for Treating Aging and Age-Related Diseases and Symptoms” (The Regents of the University of California, priority 2014, published 2023)
